In patent publication US11058619B2, “Carboxylated polyphenol derivatives and their cosmetic use” (L'ORÉAL, priority 2016, dated 2021):
Where “and” joins values, the source holds several entries; their conditions need not be identical. Equal values may be shown once.

Assays:
HAS3 marker = test: Gene marker expression (HAS3) in human epidermal keratinocytes by RT-qPCR; type: cell-based
Protocol: Human epidermal keratinocytes were seeded in 48 well-culture plate and cultured for 48 hours at 37° C. and 5% of CO2 in culture medium with renewal of culture medium after the first 24 hours. At the end of incubation, culture medium was replaced by assay medium containing or not (control) raw material and cells were incubated for additional 24 hours. All experimental conditions were performed in n=3. At the end of treatment, cells were washed twice in PBS (w/o CaCl2, w/o MgCl2) and RNA extraction was performed using MagMAX™-96 Total RNA Isolation Kit (Ambion cat n° AM8130) according to manufacturer recommendation. RNA quantification and quality control were performed using Labchip GX (Perkin Elmer). Relative expression of selected markers was measured by two steps RT-qPCR. In a first step, a reverse transcription was performed using the Quantitect® Reverse transcription kit (QIAGEN) and according to manufacturer recommendation. Then, PCR experiments were performed using a LightCycler® 480 Real-Time PCR System measuring SYBR®Green incorporation (Roche).

normal human melanocytes = test: Depigmenting activity: melanin produced by normal human melanocytes in vitro; type: cell-based
Protocol: The measurement of the depigmenting activity (reduction in the production of melanin) of compounds of formula (I) was performed by assaying the melanin produced by normal human melanocytes in vitro as follows.
First of all, normal human melanocytes are cultured and dispensed into 384 wells. After 24 hours, the culture medium was replaced with a medium containing compounds of formula (I) to be evaluated. The cells were incubated for 72 hours before measurement of the final optical density, which measures the amount of melanin produced by the melanocytes. A […] is performed using a wide concentration range of the compounds evaluated. Thus, by making the concentrations and the measurements of melanin correspond, it is possible to determine an IC50 in μM: concentration at which 50% decrease in melanin synthesis is achieved.

O=C(O)c1c(O)cc(/C=C/c2ccc(O)cc2)cc1O [Compound W]
Relative expression (UA) of HAS3 (HAS3 marker; 30 μM, 24 hours, human epidermal keratinocytes, individual replicates (n=3)): 3.44E−03 UA and 3.32E−03 UA and 3.61E−03 UA
Fold change Mean of HAS3 expression vs control (HAS3 marker; 30 μM, 24 hours, mean of n=3): 2.45
Fold change (Nb) of HAS3 expression (HAS3 marker; 30 μM, 24 hours, vs control, individual replicates (n=3)): 2.432 Nb and 2.35 Nb and 2.553 Nb
cytotoxicity (HAS3 marker; human epidermal keratinocytes, at 30 μM): without cytotoxicity
IC50 (normal human melanocytes; Melanocyte, normal human melanocytes, 72 hours incubation, optical density, read-out: IC50, inhibiting effect on the production of melanin): 25 µM
Mean percentage Depigmentation (normal human melanocytes; concentration 0.000003125 (unit not given)): 15.6%
Mean percentage Depigmentation (normal human melanocytes; concentration 0.00000625 (unit not given)): 22.8%
Mean percentage Depigmentation (normal human melanocytes; concentration 0.0000125 (unit not given)): 32.8%
Mean percentage Depigmentation (normal human melanocytes; concentration 0.000025 (unit not given)): 43.0%
Mean percentage Depigmentation (normal human melanocytes; concentration 0.00005 (unit not given)): 76.7%
Mean percentage Depigmentation (normal human melanocytes; concentration 0.0001 (unit not given)): 99.7%
Mean percentage Depigmentation (normal human melanocytes; concentration 0.0002 (unit not given)): 125.6%
Mean percentage Depigmentation (normal human melanocytes; concentration 1.5625*10^−6 (unit not given)): 9.7%
Mean percentage Depigmentation (normal human melanocytes; concentration 3.90625*10^−7 (unit not given)): −0.9%
Mean percentage Depigmentation (normal human melanocytes; concentration 7.8125*10^−7 (unit not given)): 5.5%
depigmenting effect (normal human melanocytes; normal human melanocytes): showed a depigmenting effect
cytotoxicity (normal human melanocytes; normal human melanocytes, in the concentration range tested): without cytotoxicity
